Tests used:
Experiment in all cases: Microbiocidal activity of bandage samples on inoculated agar
Format in all cases: cell-based
Settings in all cases: benzalkonium chloride in the dressing and bandage of the invention
Streptococcus foecalis = tested on: Streptococcus foecalis
Source text: (§1) The purpose of this test was to determine whether the efficacy of the benzalkonium chloride contained within the absorbent substrate of a bandage of the invention would be adversely affected when a portion of the skin-facing surface of the absorbent substrate contained a discontinuous coating of an ointment-like composition. The specimens tested were the bandages of Example 4 comprising the dressing of Example 2. Test samples 2.5 cm×2 cm were cut from the bandages so as to remove the longitudinally extending adhesive strip portions that extended beyond the boundary of the dressing portion of the bandage.
(§2) The microbiocidal activity of the benzalkonium chloride in the dressing was tested by placing samples of the dressing on a peptone-casein-soya agar growth medium contained in petri dishes having an area of 64 square centimeters that had been inoculated with certain microorganisms. The test samples were placed in the dishes so that the skin facing side of the dressing contacted the agar medium. The following microorganisms were used:
(§3) The bactericidal suspensions for seeding of the prepared petri dishes were taken from cultures in their exponential growth phase. The concentration of each suspension was determined according to an AENOR (Association Francaise Normalisation) standard method using spectrophotometry at 620 nm. Suspensions of the desired concentration were then prepared by successive dilution to give seeding stock solutions.
(§4) A standard volume of the seeding stock solution was placed in the center of each prepared petri dish and spread with the help of a spreader. The inoculated plates were dried off in a drying oven at 37° C. for 30 minutes. The dressings were placed on top of the medium in the manner described above, and the petri dishes were then incubated for a total of 24 to 48 hours at 37° C. Dishes were removed from the incubator periodically and the extent of bacterial growth underneath the dressing was measured.

Mycobacterium smegmatis = tested on: Mycobacterium smegmatis
Source text: as §1, §2, §3, §4

Staphylococcus aureus = tested on: Staphylococcus aureus
Source text: as §1, §2, §3, §4

Escherichia coli = tested on: Escherichia coli
Source text: as §1, §2, §3, §4

Measured: bactericidal activity (summary in words)

benzalkonium chloride
significant bactericidal activity: Streptococcus foecalis | Mycobacterium smegmatis | Staphylococcus aureus | Escherichia coli
